# From patent US20140315889A1, “HYDROXAMATE DERIVATIVES FOR HDAC INHIBITOR, AND THE PHARMACEUTICAL COMPOSITION COMPRISING THEREOF” (CHONG KUN DANG PHARMACEUTICAL CORP., priority 2011, published 2014)
# Like-named read-outs stand apart in the source and are kept apart here.
# Legend:
# Format in all cases: biochemical
# HDAC8 = target: T1, HDAC8 (Homo sapiens, UniProt Q9BY41); assay: HDAC enzyme activity test, HDAC8; conditions: Table 11, eleven HDAC isozymes; read-out: Inhibition ability (IC50) against HDAC8
# T1 sequence (Q9BY41 1-377): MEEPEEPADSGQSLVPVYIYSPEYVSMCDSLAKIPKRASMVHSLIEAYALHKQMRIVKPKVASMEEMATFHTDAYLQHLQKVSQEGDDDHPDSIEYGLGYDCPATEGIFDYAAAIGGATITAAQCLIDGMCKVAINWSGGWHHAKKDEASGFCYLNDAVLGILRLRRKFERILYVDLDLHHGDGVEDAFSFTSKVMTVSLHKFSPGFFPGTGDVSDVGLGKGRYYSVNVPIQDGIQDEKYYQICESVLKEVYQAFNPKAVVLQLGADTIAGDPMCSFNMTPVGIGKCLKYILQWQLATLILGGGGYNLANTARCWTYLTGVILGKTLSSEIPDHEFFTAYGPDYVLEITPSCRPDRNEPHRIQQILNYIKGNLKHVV
# Protocol: (§1) Then, 0.3 μg of enzyme and 10 μM of substrate per well were added, reacted at 30° C. for 60 minutes. Thereto, Fluor de Lys® Developer II (BML-KI176) was added and reacted for 30 minutes. […] From the data, the respective IC50 were calculated by GraphPad Prism 4.0 program.
# HDAC11 = target: T2, HDAC11 (Homo sapiens, UniProt Q96DB2); assay: HDAC enzyme activity test, HDAC11; conditions: Table 11, eleven HDAC isozymes; read-out: Inhibition ability (IC50) against HDAC11
# T2 sequence (Q96DB2 1-347): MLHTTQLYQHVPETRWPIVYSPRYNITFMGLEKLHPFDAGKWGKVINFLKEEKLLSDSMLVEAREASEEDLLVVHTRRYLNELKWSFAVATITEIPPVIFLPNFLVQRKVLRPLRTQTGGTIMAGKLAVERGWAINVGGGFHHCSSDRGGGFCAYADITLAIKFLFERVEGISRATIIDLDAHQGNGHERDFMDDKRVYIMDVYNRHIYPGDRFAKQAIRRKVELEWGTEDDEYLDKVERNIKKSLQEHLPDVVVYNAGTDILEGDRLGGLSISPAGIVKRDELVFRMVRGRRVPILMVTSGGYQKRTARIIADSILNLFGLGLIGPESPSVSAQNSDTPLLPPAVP
# Protocol: as §1
# human recombinant HDAC6 = target: T3, human recombinant HDAC6 (Homo sapiens, UniProt Q9UBN7); assay: HDAC enzyme activity test, HDAC6; conditions: for Selectivity for HDAC6, HD1/HD6: ratio HDAC1 IC50 / HDAC6 IC50
# T3 construct: purchased Calibiochem Co. (so in the source) 382180
# T3 sequence (Q9UBN7 1-1215): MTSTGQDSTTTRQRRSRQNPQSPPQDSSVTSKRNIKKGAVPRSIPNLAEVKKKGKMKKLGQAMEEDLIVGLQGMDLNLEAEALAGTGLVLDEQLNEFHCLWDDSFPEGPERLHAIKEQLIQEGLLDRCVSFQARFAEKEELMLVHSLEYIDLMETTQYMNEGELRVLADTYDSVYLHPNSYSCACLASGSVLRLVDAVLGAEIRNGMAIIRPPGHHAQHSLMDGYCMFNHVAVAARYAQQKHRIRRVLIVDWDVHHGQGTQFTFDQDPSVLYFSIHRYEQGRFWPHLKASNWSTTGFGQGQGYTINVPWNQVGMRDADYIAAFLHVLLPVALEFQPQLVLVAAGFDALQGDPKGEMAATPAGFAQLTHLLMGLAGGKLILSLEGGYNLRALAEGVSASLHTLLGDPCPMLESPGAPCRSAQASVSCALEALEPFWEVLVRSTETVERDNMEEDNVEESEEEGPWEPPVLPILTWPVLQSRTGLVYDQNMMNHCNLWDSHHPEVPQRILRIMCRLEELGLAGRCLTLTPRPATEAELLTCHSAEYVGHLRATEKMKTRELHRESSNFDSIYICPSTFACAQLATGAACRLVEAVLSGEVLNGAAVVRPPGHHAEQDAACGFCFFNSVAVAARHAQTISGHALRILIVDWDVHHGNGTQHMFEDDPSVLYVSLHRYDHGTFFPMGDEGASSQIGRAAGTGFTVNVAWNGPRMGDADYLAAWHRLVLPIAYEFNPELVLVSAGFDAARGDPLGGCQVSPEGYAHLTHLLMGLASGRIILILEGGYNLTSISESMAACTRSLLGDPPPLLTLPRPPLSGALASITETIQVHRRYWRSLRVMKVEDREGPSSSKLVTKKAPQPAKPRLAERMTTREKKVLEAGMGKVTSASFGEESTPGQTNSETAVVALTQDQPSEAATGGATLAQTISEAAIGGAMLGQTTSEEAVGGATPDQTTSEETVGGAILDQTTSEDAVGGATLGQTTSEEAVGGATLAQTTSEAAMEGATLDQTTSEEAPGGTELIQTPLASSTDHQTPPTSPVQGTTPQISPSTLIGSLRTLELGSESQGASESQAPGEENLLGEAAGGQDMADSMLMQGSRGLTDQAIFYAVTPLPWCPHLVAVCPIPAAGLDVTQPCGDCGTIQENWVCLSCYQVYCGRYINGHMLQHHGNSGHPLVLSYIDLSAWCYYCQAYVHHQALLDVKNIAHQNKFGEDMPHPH
# Protocol: as §1
# Human recombinant HDAC1 = target: T4, Human recombinant HDAC1 (Homo sapiens, UniProt Q13547); assay: HDAC enzyme activity test, HDAC1
# T4 construct: purchased Enzo Life Science Co. (named for the kit; assigned to the enzyme from the BML- catalogue prefix) BML-SE456
# Protocol: as §1
# HDAC9 = HDAC9 (Homo sapiens, UniProt Q9UKV0); assay: HDAC enzyme activity test, HDAC9; conditions: Table 11, eleven HDAC isozymes; read-out: Inhibition ability (IC50) against HDAC9
# Protocol: as §1
# [1] = Table 11, eleven HDAC isozymes, read-out: Inhibition ability (IC50) against HDAC6
# [2] = Table 12, read-out: Inhibition ability (IC50) HDAC6
# [3] = Table 12, read-out: Inhibition ability (IC50) HDAC1
# T4 sequence (Q13547 whole entry): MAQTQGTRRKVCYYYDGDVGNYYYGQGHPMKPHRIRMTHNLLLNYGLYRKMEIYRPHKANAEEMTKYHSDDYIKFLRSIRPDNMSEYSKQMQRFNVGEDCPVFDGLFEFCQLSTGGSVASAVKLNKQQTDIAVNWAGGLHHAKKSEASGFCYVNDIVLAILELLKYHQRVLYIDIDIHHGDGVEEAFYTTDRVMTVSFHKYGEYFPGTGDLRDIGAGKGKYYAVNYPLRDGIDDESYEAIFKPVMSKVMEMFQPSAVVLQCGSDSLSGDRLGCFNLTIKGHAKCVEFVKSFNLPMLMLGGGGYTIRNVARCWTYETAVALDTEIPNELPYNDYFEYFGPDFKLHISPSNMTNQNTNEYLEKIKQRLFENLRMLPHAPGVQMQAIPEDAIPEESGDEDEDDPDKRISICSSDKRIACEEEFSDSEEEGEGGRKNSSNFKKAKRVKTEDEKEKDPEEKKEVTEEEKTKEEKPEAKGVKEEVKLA
# Chain of HDAC9 (Q9UKV0 whole entry, species assumed): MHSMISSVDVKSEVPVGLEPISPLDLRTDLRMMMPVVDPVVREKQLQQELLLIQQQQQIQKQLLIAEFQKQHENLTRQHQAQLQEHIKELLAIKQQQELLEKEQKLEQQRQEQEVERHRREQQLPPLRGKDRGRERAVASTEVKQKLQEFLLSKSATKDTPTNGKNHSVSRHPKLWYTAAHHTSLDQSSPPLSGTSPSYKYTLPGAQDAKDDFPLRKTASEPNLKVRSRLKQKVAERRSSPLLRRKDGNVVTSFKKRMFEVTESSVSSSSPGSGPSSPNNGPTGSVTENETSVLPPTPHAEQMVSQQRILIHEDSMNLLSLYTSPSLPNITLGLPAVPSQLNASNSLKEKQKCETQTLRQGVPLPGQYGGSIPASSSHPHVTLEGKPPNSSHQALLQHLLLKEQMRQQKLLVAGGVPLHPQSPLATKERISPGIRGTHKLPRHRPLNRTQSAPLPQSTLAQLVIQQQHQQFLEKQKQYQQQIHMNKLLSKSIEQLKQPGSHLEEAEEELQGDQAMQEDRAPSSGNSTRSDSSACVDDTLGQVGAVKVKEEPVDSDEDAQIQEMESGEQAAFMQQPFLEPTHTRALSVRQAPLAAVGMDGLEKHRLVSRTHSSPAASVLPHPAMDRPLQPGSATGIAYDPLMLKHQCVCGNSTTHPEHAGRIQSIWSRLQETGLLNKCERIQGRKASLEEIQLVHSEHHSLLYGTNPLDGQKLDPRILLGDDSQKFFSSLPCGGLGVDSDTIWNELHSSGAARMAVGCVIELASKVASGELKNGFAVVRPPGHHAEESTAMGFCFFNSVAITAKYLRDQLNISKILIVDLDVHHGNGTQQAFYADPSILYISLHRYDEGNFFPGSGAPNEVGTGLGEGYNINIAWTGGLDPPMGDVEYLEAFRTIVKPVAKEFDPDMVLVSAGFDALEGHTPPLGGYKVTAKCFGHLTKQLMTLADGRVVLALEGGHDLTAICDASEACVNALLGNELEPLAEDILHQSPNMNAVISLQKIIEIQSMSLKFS
Structure (SMILES),IC50 (HDAC8),IC50 (HDAC11),IC50 (human recombinant HDAC6; [1]),"Selectivity for HDAC6, HD1/HD6 (human recombinant HDAC6; Table 12)",IC50 (human recombinant HDAC6; [2]),"IC50 (Human recombinant HDAC1; Table 11, eleven HDAC isozymes, read-out: Inhibition ability (IC50) against HDAC1)",IC50 (Human recombinant HDAC1; [3]),IC50 (HDAC9)
"CC1(C)CC(=O)c2c(n(Cc3ccc(C(=O)NO)cc3)c3ccccc23)C1 [Compound 19, 4-((2,2-dimethyl-4-oxo-1,2,3,4-tetrahydrocarbazol-9-yl)methyl)-N-hydroxybenzamide]",794 nM,22200 nM,35.3 nM,201.8,20.9 nM,18100 nM,4220 nM,30400 nM
"CC1(C)CC(=O)c2c(n(CCCCCC(=O)NO)c3ccc(F)cc23)C1 [Compound 55, 6-(6-fluoro-2,2-dimethyl-4-oxo-1,2,3,4-tetrahydrocarbazol-9-yl)-N-hydroxyhexanamide]",507 nM,,228 nM,72.5,56.4 nM,,4080 nM,
"CC(C)(C)OC(=O)N1CCN(CC2CCc3c(c4cc(F)ccc4n3CCCCCC(=O)NO)C2=O)CC1 (stereo not shown) [Compound 324, tert-butyl 4-((6-fluoro-9-(6-(hydroxyamino)-6-oxohexyl)-4-oxo-2,3,4,9-tetrahydro-1H-carbazol-3-yl)methyl)piperazine-1-carboxylate]",,,,113.2,103 nM,,11600 nM,
"O=C(CCCCCCn1c2c(c3cc(F)ccc31)C(=O)CCC2)NO [Compound 325, 7-(3-fluoro-5-oxo-5,6,7,8-tetrahydrocarbazol-9-yl)-N-hydroxyheptanamide]",,,,31.3,3 nM,,93.8 nM,
"CCCCN1CCN(CC2CCc3c(c4cc(F)ccc4n3CCCCCC(=O)NO)C2=O)CC1 (stereo not shown) [Compound 326, 6-(3-((4-butylpiperazin-1-yl)methyl)-6-fluoro-4-oxo-1,2,3,4-tetrahydrocarbazol-9-yl)-N-hydroxyhexanamide]",,,,103.3,97.6 nM,,10100 nM,
"Cc1c2c(n(CCCCCCC(=O)NO)c1C)CCCC2=O [Compound 328, 7-(2,3-dimethyl-4-oxo-4,5,6,7-tetrahydro-1H-indol-1-yl)-N-hydroxyheptanamide]",,,,145.1,22.1 nM,,3210 nM,
"O=C(CCCCCCn1c2c(c3cc(F)ccc31)C(=O)C(CN1CCOCC1)CC2)NO (stereo not shown) [Compound 344, 7-(6-fluoro-3-(morpholinomethyl)-4-oxo-1,2,3,4-tetrahydrocarbazol-9-yl)-N-hydroxyheptanamide]",,,,6.3,16.2 nM,,102 nM,
"Cc1cc2c(n1CCCCCC(=O)NO)CC(C)(C)CC2=O [Compound 345, N-hydroxy-6-(2,6,6-trimethyl-4-oxo-4,5,6,7-tetrahydroindol-1-yl)hexanamide]",,,,14.3,28.1 nM,,402 nM,
"Cc1cc2c(n1CCCCCCC(=O)NO)CCCC2=O [Compound 346, N-hydroxy-7-(2-methyl-4-oxo-4,5,6,7-tetrahydroindol-1-yl)heptanamide]",,,,10.2,25 nM,,255 nM,
"Cc1cc2c(n1CCCCCCC(=O)NO)CC(C)(C)CC2=O [Compound 347, N-hydroxy-7-(2,6,6-trimethyl-4-oxo-4,5,6,7-tetrahydroindol-1-yl)heptanamide]",,,,16.8,27 nM,,453 nM,
"Cc1c2c(n(CCCCCC(=O)NO)c1C)CC(C)(C)CC2=O [Compound 350, N-hydroxy-6-(2,3,6,6-tetramethyl-4-oxo-4,5,6,7-tetrahydro-1H-indol-1-yl)hexanamide]",,,,9.8,102 nM,,1000 nM,
